A word on the GI50: it is the concentration giving 50% growth inhibition. A higher GI50 goes with less potent growth inhibition. One may read the IC50 as the point on the concentration scale where inhibition reaches its midpoint. A high value points to a need for much substance.

The structures appear in SMILES notation. Activity calls are given as the source filed them. The calls are words filed in the database; no cut-off is given here. Where only a bound is given, the exact number is not on record here.

This note sets out measurements from ChEMBL document CHEMBL1130805, “The synthesis and evaluation of benzannelated-azatoxins: the benzazatoxins” (Bioorg Med Chem Lett, 1998).

The subject of one experiment is PC-3. Put plainly: Compound was evaluated for growth inhibition against PC-3 cells using cellular assay. Conditions: Homo sapiens. It is filed as functional.
The species entered for the next experiment is Bos taurus. Nature of the experiment: Compound was evaluated for inhibition of tubulin polymerization in bovine brain tubulin. In kind it is functional.
The subject of the next experiment is NCI-H520. Nature of the experiment: Compound was evaluated for growth inhibition against NCI-H520 cells using cellular assay. It is filed as functional. Conditions: Homo sapiens.
Another experiment relates to MCF7. Put plainly: Compound was evaluated for growth inhibition against MCF-7 cells using cellular assay. It is filed as functional. The note with it: Homo sapiens.
The target of experiment [1] is T1, DNA topoisomerase II (Homo sapiens) (UniProt P11388+Q02880). Put plainly: Compound was evaluated for its ability to affect topoisomerase II inhibition; active. In kind it is protein assay.
Experiment [2] deals with T1, DNA topoisomerase II (Homo sapiens). Put plainly: Compound was evaluated for its ability to affect topoisomerase II inhibition; inactive. It is filed as protein assay.

On to `COc1cc([C@@H]2c3[nH]c4ccccc4c3C[C@H]3COC(=O)N32)cc(OC)c1O`, for which the results for the concentration for 50% growth inhibition (GI50) in the experiment with PC-3, with NCI-H520 and in the experiment on MCF7 were 0.2 µM, 0.12 µM and 0.25 µM, respectively. Also, in the experiment filed under Bos taurus, the IC50 stood at 20.3 µM. In addition, the outcome in experiment [1] was Active.

For `COc1cc2c(c(OC)c1OC)-c1ccc(OC)c(=O)cc1[C@@H](NC(C)=O)CC2` [COLCHICINE], the GI50 in the experiment with PC-3, with NCI-H520 and in the experiment with MCF7 was less than 0.05 µM throughout. Further, in experiment [2], the result was inactive. This molecule also displayed a half-inhibitory concentration (IC50) in the experiment listed under Bos taurus of 11.8 µM.

For the molecule `COc1cc([C@@H]2c3[nH]c4cc5ccccc5cc4c3C[C@H]3COC(=O)N32)cc(OC)c1O`, the concentration for 50% growth inhibition (GI50) was 10 µM with PC-3, 4 µM in the experiment on NCI-H520 and 5 µM with MCF7. Moreover, the result in experiment [2] was inactive. The same molecule gave an IC50 in the experiment filed under Bos taurus of 6.7 µM.

In the case of `COc1cc([C@@H]2c3[nH]c4c(ccc5ccccc54)c3C[C@H]3COC(=O)N32)cc(OC)c1O`, the GI50 in the experiment on PC-3, in the experiment on NCI-H520 and in the experiment with MCF7 was more than 50 µM throughout. The outcome in experiment [2] was inactive. In the experiment filed under Bos taurus, this molecule gave an IC50 of 51 µM.

Turning to `COc1cc([C@@H]2c3[nH]c4ccc5ccccc5c4c3C[C@H]3COC(=O)N32)cc(OC)c1O`, the figures for the GI50 in the experiment on PC-3, with NCI-H520 and with MCF7 were 2 µM, 0.8 µM and 2 µM, respectively. Further, the result in experiment [2] was inactive. This molecule registered an IC50 in the experiment listed under Bos taurus of 5.6 µM.
